Five compounds from the NIST ThermoML archive (doi:10.1016/j.fluid.2008.03.020) can be followed below.

For data set [1] the following is noted: Liquid.
A short description of data set [2]: refractive index (Na D-line) (dimensionless). To be noted: Liquid, Standard Abbe refractometry.

The structures appear in SMILES notation. ± gives the expanded uncertainty stated by the source.

In general, mass density refers to mass per unit of volume. The vapor or sublimation pressure is the pressure of vapour in equilibrium with the condensed phase. What is called refractive index is a measure of how strongly the sample bends light.

Take `ClC(Cl)C(Cl)Cl` [1,1,2,2-tetrachloroethane]: the mass density in data set [1] (293.15 K) is reported as 1593 ± 4.5 kg/m3. Moreover, in data set [1] (417.25 K), the “vapor or sublimation pressure” value worked out at 95.5 ± 2 kPa. For the same compound, the refractive index in data set [2] (293.15 K) amounted to 1.494 ± 0.0007.
In the case of `ClCCCl` [1,2-dichloroethane], the mass density in data set [1] (293.15 K) stood at 1252.9 ± 3.4 kg/m3. For the same compound, the “vapor or sublimation pressure” value in data set [1] (355.15 K) came to 95.5 ± 2 kPa. Further, the refractive index in data set [2] (293.15 K) was determined as 1.4196 ± 0.0007.
`C=CC#N` [acrylonitrile]: the mass density in data set [1] (298.15 K) amounted to 800.3 ± 2 kg/m3. Also, the “vapor or sublimation pressure” value in data set [1] (348.75 K) is 95.5 ± 2 kPa. Also, in data set [2] (298.15 K), the refractive index amounted to 1.3887 ± 0.0007.
`Clc1ccccc1` [chlorobenzene]: the mass density in data set [1] (298.15 K) was 1101 ± 3 kg/m3. The “vapor or sublimation pressure” value in data set [1] (402.85 K) came to 95.5 ± 2 kPa. Further, the refractive index in data set [2] (298.15 K) worked out at 1.5218 ± 0.0007.
Consider `O=[N+]([O-])c1ccccc1` [nitrobenzene], for which the mass density in data set [1] (298.15 K) was found to be 1198.3 ± 3.3 kg/m3. In addition, the “vapor or sublimation pressure” value in data set [1] (481.45 K) was found to be 95.5 ± 2 kPa. Moreover, in data set [2] (298.15 K), the refractive index came to 1.55 ± 0.0007.
